Legend:
Format in all cases: cell-based
[1] = system: Pseudomonas aeruginosa biofilm; test: Biofilm formation, crystal violet staining, 96-well microplate (Example 8); conditions: reduction in biofilm formation, OD at 630 nm, 24 hours
Description: (§1) An overnight broth culture of bacteria and yeast were grown in TSB and used as inoculum. 96-well microplates containing TSB (for gram-positive species and yeast) and colony forming unit antigen medium (for gram-negative bacteria) in the absence and the presence of each compound separately (SMP or CHX) and together (SMP+CHX) were inoculated. The biofilm was grown by incubating at 37° C. (for gram-positive bacteria and yeast) and 26° C. (for gram-negative bacteria) for 24 hours. Growth of planktonic cells based on absorbance at 600 nm using Labsystems Multiskan Ascent microplate reader was determined. Biofilm was measured by discarding the media in the wells, rinsing the well three times with water, and staining the bound cells with crystal violet. The dye was then solubilized with 33% acetic acid, and absorbance at 630 nm was determined using a microtiter plate reader.

Escherichia coli biofilm [2] = test: Biofilm formation, crystal violet staining, 96-well microtiter plate (Example 7); conditions: reduction in biofilm formation, OD at 630 nm, 37° C., 24 hours
Description: as §1, with “E. coli was” for “bacteria and yeast were”, “microtiter plate” for “microplates”, “TSB” for “TSB (for gram-positive species and yeast) and colony forming unit antigen medium (for gram-negative bacteria)”, “and” for “and the”, “C.” for “C. (for gram-positive bacteria and yeast) and 26° C. (for gram-negative bacteria)”

[3] = system: Staphylococcus epidermidis biofilm; test: Biofilm formation, crystal violet staining, 96-well microtiter plate (Example 9); conditions: reduction in biofilm formation, OD at 630 nm, 37° C., 24 hours
Description: as §1, with “S. epidermidis was” for “bacteria and yeast were”, “microtiter plate” for “microplates”, “TSB” for “TSB (for gram-positive species and yeast) and colony forming unit antigen medium (for gram-negative bacteria)”, “and” for “and the”, “C.” for “C. (for gram-positive bacteria and yeast) and 26° C. (for gram-negative bacteria)”

[4] = system: Staphylococcus epidermidis biofilm; test: Biofilm formation, crystal violet staining, 96-well microtiter plate (Example 6); conditions: reduction in biofilm formation, OD at 630 nm, 37° C., 24 hours
Description: (§2) An overnight broth culture of S. epidermidis was grown in TSB and used as inoculum. 96-well microtiter plate containing TSB in the absence and presence of each compound separately (SMP or FU) and together (SMP+FU) were inoculated. The biofilm was grown by incubating at 37° C. for 24 hours. Growth of planktonic cells based on absorbance at 600 nm using Labsystems Multiskan Ascent microplate reader was determined. Biofilm was measured by discarding the media in the wells, rinsing the well three times with water, and staining the bound cells with crystal violet. The dye was then solubilized with 33% acetic acid, and absorbance at 630 nm was determined using a microtiter plate reader.

Escherichia coli biofilm [5] = test: Biofilm formation, crystal violet staining, 96-well microtiter plate (Example 4); conditions: reduction in biofilm formation, OD at 630 nm, 37° C., 24 hours
Description: as §2, with “E. coli” for “S. epidermidis”

[6] = system: Pseudomonas aeruginosa biofilm; test: Biofilm formation, crystal violet staining, 96-well microtiter plate (Example 5); conditions: reduction in biofilm formation, OD at 630 nm, 37° C., 24 hours
Description: as §2, with “P. aeruginosa” for “S. epidermidis”

Escherichia coli biofilm [7] = test: Biofilm formation, crystal violet staining, 96-well microplate (Example 1); conditions: reduction in biofilm formation, OD at 630 nm, 26° C., 24 hours
Description: (§3) An overnight broth culture of E. coli was grown in TSB and used as inoculum. 96-well microplates containing colony forming antigen medium (for […] species) in the absence and the presence of each compound (PS or BZK) separately and together (PS and BZK) were inoculated and incubated at 26° C. for 24 hours. Growth of planktonic cells based on absorbance at 600 nm using Labsystems Multiskan Ascent microplate reader was determined. Biofilm was measured by discarding the media in the wells, rinsing the well three times with water, and staining the bound cells with crystal violet. The dye was then solubilized with 33% acetic acid, and absorbance at 630 nm was determined using a microtiter plate reader.

[8] = system: Staphylococcus epidermidis biofilm; test: Biofilm formation, crystal violet staining, 96-well microplate (Example 3); conditions: reduction in biofilm formation, OD at 630 nm, 37° C., 24 hours
Description: as §3, with “S. epidermidis” for “E. coli”, “TSB,” for “TSB”, “TSB” for “colony forming antigen medium”, “37°” for “26°”

[9] = system: Pseudomonas aeruginosa biofilm; test: Biofilm formation, crystal violet staining, 96-well microplate (Example 2); conditions: reduction in biofilm formation, OD at 630 nm, 26°, 24 hours
Description: as §3, with “P. aeruginosa” for “E. coli”, “26°” for “26° C.”

S. aureus = test: Minimum inhibitory concentration (MIC) in 96-well microtiter plates; conditions: agent alone, TSB, 37° C., 24 hours
Description: (§4) Bacterial strains were grown overnight at 37° C. with 100 rpm shaking in Tryptic Soy Broth (TSB) and diluted to approximately 10^5 CFU/ml. Assays were conducted by methods of minimum inhibitory concentration (MIC) in 96-well microtiter plates as described previously (Amsterdam, D. 1996, In: V. Loman, Ed., “Antibiotics in laboratory medicine”, p. 52-111, Williams and Wilkins, Baltimore, M.D.). Antimicrobials PS and SNP both alone and together were serially diluted in TSB (100 μl), and 100 μl of bacterial suspension was added to each well. Plates were incubated at 37° C. for 24 hours and read at 600 nm using a microtiter plate reader (Multiskan Ascent, Labsystems, Helsinki, Finland).

Escherichia coli = test: as above; conditions: agent alone, TSB, 37° C., 24 hours
Description: as §4

[H]/N=C(\N/C(=N/[H])NCCCCCCNC(=N)NC(=N)Nc1ccc(Cl)cc1)Nc1ccc(Cl)cc1 [CHX, chlorhexidine]
Biofilm Inhibition by CHX ([1]; CHX 6 μg/ml alone): 0.66 OD
Biofilm Inhibition by CHX (Escherichia coli biofilm [2]; CHX 1 μg/ml alone): 0.04 OD
Biofilm Inhibition by CHX ([3]; CHX 0.5 μg/ml alone): 0.00 OD

O=c1[nH]cc(F)c(=O)[nH]1 [FU, 5-fluorouracil]
Biofilm Inhibition by FU ([4]; FU 20 μg/ml alone): 1.43 OD
Biofilm Inhibition by FU (Escherichia coli biofilm [5]; FU 6.25 μg/ml alone): 0.17 OD
Biofilm Inhibition by FU ([6]; FU 3.75 μg/ml alone): 0.00 OD

[Na+].[O-][I+3]([O-])([O-])[O-] [SMP, sodium metaperiodate]
Biofilm Inhibition by SMP ([1]; SMP 125 μg/ml alone): 0.17 OD
Biofilm Inhibition by SMP (Escherichia coli biofilm [2]; SMP 250 μg/ml alone): 0.12 OD
Biofilm Inhibition by SMP ([4]; SMP 250 μg/ml alone): 0.00 OD
Biofilm Inhibition by SMP (Escherichia coli biofilm [5]; SMP 250 μg/ml alone): 0.3 OD
Biofilm Inhibition by SMP ([3]; SMP 250 μg/ml alone): 0.00 OD
Biofilm Inhibition by SMP ([6]; SMP 250 μg/ml alone): 0.16 OD

benzalkonium chloride [BZK]
Biofilm Inhibition by BZK (Escherichia coli biofilm [7]; BZK 6 μg/ml alone): 0.14 OD
Biofilm Inhibition by BZK ([8]; BZK 0.8 μg/ml alone): 1.21 OD
Biofilm Inhibition by BZK ([9]; BZK 12.5 μg/ml alone): 0.00 OD

protamine sulfate [PS]
MIC (S. aureus): >200 µg/mL
MIC (Escherichia coli): >200 µg/mL
Biofilm Inhibition by PS (Escherichia coli biofilm [7]; PS 12 μg/ml alone): 0.04 OD
Biofilm Inhibition by PS ([8]; PS 1.5 μg/ml alone): 0.34 OD
Biofilm Inhibition by PS ([9]; PS 25 μg/ml alone): 0.00 OD

From patent publication US9622481B2, “Biofilm-removing antimicrobial compositions and uses thereof” (Kane Biotech Inc., priority 2009, dated 2017)
